The values that follow come from patent US6780619B2, “D-aminoacylase and gene encoding the same” (priority 2000, dated 2004).

The conditions of data set [1]: in vivo; cited from earlier work.
The subject of data set [2] is D-aminoacylase. In words: Stabilizer/activator effect on D-aminoacylase activity. The data set is classed as biochemical, Hypomyces mycophilus. The text has this:
(f) stabilizer: the enzyme activity is stabilized by reducing agents and activated by ICH2CONH2.

Data set [3] concerns D-aminoacylase. The data set can be described thus: Substrate specificity of the D-aminoacylase (amino acid produced, assayed by TNBS or HPLC method). The data set is classed as biochemical, Hypomyces mycophilus. The settings on record: for catalytic activity of the D-aminoacylase for the substrate: 20 mM substrate, 50 mM Tris-HCl pH 7.5, 30° C., 20 minutes; for substrate specificity: the enzyme acts on / not on the substrate: purified enzyme, property (c). The method, then: The substrate specificity of the D-aminoacylase of the present invention can be tested by the following procedure. For example, an enzyme solution (1 μl) is mixed and incubated with 50 mM Tris-HCl (pH 7.5) buffer (total volume: 1.0 ml) containing 20 mM substrate (various N-acetyl-D-amino acids) at 30° C. for 20 minutes. By measuring the amounts of amino acid synthesized by this reaction, enzymatic activities for respective substrates can be compared with each other. Assay for amino acid is performed by TNBS (trinitrobenzenesulfonic acid) method or HPLC method. For example, D-tryptophan, which may be used as a standard product in the reaction, is assayed for a comparison of enzymatic activity; by taking the amount of enzyme required for the production of 1 μmol D-tryptophan as 1 unit (or U), the reactivity is compared between different enzymes or is compared with the reactivity assayed for other types of amino acids.

Data set [4] is described as follows: Optimal reaction temperature of the purified D-aminoacylase. Type of data set: biochemical, Hypomyces mycophilus. The settings on record: reaction at pH 7.5. The method, then:
(e) optimal temperature: for the reaction at pH 7.5, the enzyme activity is optimal at about 45° C.; and […]

For the molecule `O=C1CCC(N2C(=O)c3ccccc3C2=O)C(=O)N1` [D(R)-form thalidomide, thalidomide], the teratogenic activity entry in data set [1] is recorded as “no teratogenic activity”. Take `NC(=O)CI` [ICH2CONH2]: the “effect on D-aminoacylase enzyme activity” value in the data set with D-aminoacylase [2] is listed as “activated”. As to `O=C1CCC(N2C(=O)c3ccccc3C2=O)C(=O)N1` [L(S)-form, thalidomide], the teratogenic activity entry in data set [1] was “strong teratogenicity”. As to `CC(=O)N[C@H](CC(C)C)C(=O)O` [N-acetyl-D-leucine], in the data set with D-aminoacylase [3], the “catalytic activity of the D-aminoacylase for the substrate” value (shortened to “catalytic activity of the D-aminoacylase”) is reported as “efficiently catalyzes the reaction” and the “substrate specificity: the enzyme acts on / not on the substrate” value is given as “acts on”.

As to `CSCC[C@@H](NC(C)=O)C(=O)O` [N-acetyl-D-methionine], in the data set on D-aminoacylase [3], the “catalytic activity of the D-aminoacylase” value was “efficiently catalyzes the reaction” and the “substrate specificity: the enzyme acts on / not on the substrate” value is given as “acts on”.

Turning to `CC(=O)N[C@H](Cc1ccccc1)C(=O)O` [N-acetyl-D-phenylalanine], in the data set with D-aminoacylase [3], the “catalytic activity of the D-aminoacylase” value is on record as “very efficiently catalyzes the reaction” and the “substrate specificity: the enzyme acts on / not on the substrate” value is given as “acts on”. The matching figures for `CC(=O)N[C@H](Cc1c[nH]c2ccccc12)C(=O)O` [N-acetyl-D-tryptophan]: “efficiently catalyzes the reaction” and “acts on”. Take `CC(=O)N[C@@H](C(=O)O)C(C)C` [N-acetyl-D-valine]: in the data set on D-aminoacylase [3], the “catalytic activity of the D-aminoacylase” value is listed as “catalyzes the reaction” and the “substrate specificity: the enzyme acts on / not on the substrate” value was “acts on”.

As for `CC(=O)N[C@@H](CC(C)C)C(=O)O` [N-acetyl-L-leucine], in the data set with D-aminoacylase [3], the “catalytic activity of the D-aminoacylase” value is on record as “substantially no catalytic activity” and the “substrate specificity: the enzyme acts on / not on the substrate” value is on record as “not on”. The like results for `CSCC[C@H](NC(C)=O)C(=O)O` [N-acetyl-L-methionine] were, in that order, “substantially no catalytic activity” and “not on”.

Turning to `CC(=O)N[C@@H](Cc1ccccc1)C(=O)O` [N-acetyl-L-phenylalanine], in the data set on D-aminoacylase [3], the “catalytic activity of the D-aminoacylase” value is “substantially no catalytic activity” and the “substrate specificity: the enzyme acts on / not on the substrate” value is given as “not on”. The matching figures for `CC(=O)N[C@@H](Cc1c[nH]c2ccccc12)C(=O)O` [N-acetyl-L-tryptophan]: “substantially no catalytic activity” and “not on”. The matching figures for `CC(=O)N[C@H](C(=O)O)C(C)C` [N-acetyl-L-valine]: “substantially no catalytic activity” and “not on”. Consider `O=C(CCl)N[C@H](Cc1ccccc1)C(=O)O` [N-chloroacetyl-D-phenylalanine], for which the “catalytic activity of the D-aminoacylase” value with D-aminoacylase [3] was “very efficiently catalyzes the reaction”.

B1: D-aminoacylase: D-aminoacylase purified from Hypomyces mycophilus IFO 6785, comprising the amino acid sequence of SEQ ID NO: 2 (protein)
chain: MRTEILFHSATVITGDEAAQPFVADVLVSKGLIAKIGNPGSINATPDTRHLDVTGYILSPGFIDMHAHSDLYLLSHPDHEAKITQGCTTEVVGQDGISYAPIRNVDQLRAIREQIAGWNGNPTDEECRTTLKGVGMFEWQTIGEYLDCLERNRTATNVAMLVPQGNLRLLACGPYDTPASAEEIQDQIQLLREAMAQGAVGMSSGLTYTPGMYASTSELASLCAALAQEFPGAFYAPHHRSYGFQAIESYAEMLDLGESTGCPIHLTHATLNFSENKGKAPVLISMVDKSLAAGVDVTLDTYPYLPGCTTLAALLPSWASAGGPQETLKRLEDAESREKIRIAVEIKGCDGGHGIPTNWDEIQIGTTNEPSIASYSGRRLSEVAQSVGKPTIEVFFEILQKDKLATSCIMHVGNEENVRQIMQHRVHMAGSDGILHGQTLHPRAYGTFTRYLGHYSRELSLVALPSMIAHLTSRPAKRLSVYPYRGLIAEGSAADIVVFNPETVKDMSTYEEPKVPSRGIRFVLVNGQIAVDEGKMTGTRGGKTLRRSTDGKVKARDE
In the case of B1, in data set [4], the “optimal temperature of enzyme activity” value is “about 45 °C”.
